According to patent publication US20260184675A1, “CHIRAL ISOMERIC SULFITE COMPOUND AND APPLICATION THEREOF” (Chengdu Hanova BioSciences Co., Ltd, priority 2024, published 2026):

Columns and labels:
[1] = tested on: pest eggs of Tetranychus cinnabarinus; assay: Effect on hatching of pest eggs of Tetranychus cinnabarinus, leaf disc method; assay type: in vivo; conditions: for Hatching rate (%): 7 days after insecticide delivery; for inhibitory effect on the hatching of pest eggs of Tetranychus cinnabarinus (in words): 1 ppm
Outline: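 Adult female mites laid eggs on 2.0 cm Vicia faba leaf discs for up to 36 h; discs with counted eggs were dipped 10 s in compound solution or water, then kept moist. Hatched eggs were counted 7 days after treatment and control effect was calculated by formula.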

[2] = tested on: eggs of Spodoptera litura; assay: Effect on hatching of eggs of Spodoptera litura, egg piece soaking; assay type: in vivo; conditions: 500 ppm; for Hatching rate (%), Replicate 1 / Hatching rate (%), Replicate 2 / Hatching rate (%), Replicate 3 / Number of unhatched larvae 4 days after insecticide delivery, Replicate 1 / Number of unhatched larvae 4 days after insecticide delivery, Replicate 2 / Number of unhatched larvae 4 days after insecticide delivery, Replicate 3: Spodoptera litura eggs; for Hatching rate (%), Replicate 1 / Hatching rate (%), Replicate 2 / Hatching rate (%), Replicate 3: 4 days after delivery; for Number of unhatched larvae 4 days after insecticide delivery, Replicate 1 / Number of unhatched larvae 4 days after insecticide delivery, Replicate 2 / Number of unhatched larvae 4 days after insecticide delivery, Replicate 3: soaked 10 minutes
Outline: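 Egg pieces of about 60 eggs were soaked 10 min in test agent at 500 ppm, blotted, then held singly at 24±1 °C, 80±10% RH, 12:12 L:D. Hatched and unhatched eggs were counted on day 4 to give hatching rate and control effect; 3 replicates.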

Row | Structure (SMILES) | Hatching rate (%) ([1]; 0.25 mg/L, Replicate 1) | Hatching rate (%) ([1]; 0.25 mg/L, Replicate 2) | Number of hatched larvae 7 days after insecticide delivery ([1]; 0.25 mg/L, Replicate 1) | Number of hatched larvae 7 days after insecticide delivery ([1]; 0.25 mg/L, Replicate 2) | Hatching rate (%) ([1]; 0.5 mg/L, Replicate 1) | Hatching rate (%) ([1]; 0.5 mg/L, Replicate 2) | Number of hatched larvae 7 days after insecticide delivery ([1]; 0.5 mg/L, Replicate 1) | Number of hatched larvae 7 days after insecticide delivery ([1]; 0.5 mg/L, Replicate 2) | Hatching rate (%) ([1]; 1 mg/L, Replicate 1) | Hatching rate (%) ([1]; 1 mg/L, Replicate 2) | Number of hatched larvae 7 days after insecticide delivery ([1]; 1 mg/L, Replicate 1) | Number of hatched larvae 7 days after insecticide delivery ([1]; 1 mg/L, Replicate 2) | Hatching rate (%), Replicate 1 [2] [%] | Hatching rate (%), Replicate 2 [2] [%] | Hatching rate (%), Replicate 3 [2] [%] | Number of unhatched larvae 4 days after insecticide delivery, Replicate 1 [2] | Number of unhatched larvae 4 days after insecticide delivery, Replicate 2 [2] | Number of unhatched larvae 4 days after insecticide delivery, Replicate 3 [2] | inhibitory effect on the hatching of pest eggs of Tetranychus cinnabarinus (in words) [1] | further results
1 | CC[C@H](COS(=O)OCCF)Oc1ccc(Cl)cc1Cl (stereo partly drawn) [19′-(R,S)] | 70.31 | 71.43 | 19 | 20 | 46.48 | 44.93 | 38 | 38 | 6.00 | 6.45 | 47 | 58 | 51.67 | 50.77 | 50.00 | 30 | 32 | 27 |  | 
2 | CC[C@@H](COS(=O)OCCF)Oc1ccc(Cl)cc1Cl (stereo partly drawn) [19′-(S,R)] | 68.49 | 69.23 | 23 | 20 | 35.09 | 32.79 | 37 | 41 | 0.00 | 1.85 | 68 | 53 |  |  |  |  |  |  |  | Hatching rate (%), Replicate 1 ([2]; listed as 19′-(S, R)): 53.57%; Hatching rate (%), Replicate 2 ([2]; listed as 19′-(S, R)): 53.23%; Hatching rate (%), Replicate 3 ([2]; listed as 19′-(S, R)): 53.73%; Number of unhatched larvae 4 days after insecticide delivery, Replicate 1 ([2]; listed as 19′-(S, R)): 26; Number of unhatched larvae 4 days after insecticide delivery, Replicate 2 ([2]; listed as 19′-(S, R)): 29; Number of unhatched larvae 4 days after insecticide delivery, Replicate 3 ([2]; listed as 19′-(S, R)): 31
3 | CC[C@@H](COS(=O)OCCF)Oc1ccc(Cl)cc1Cl (stereo partly drawn) [19′-(S,S)] | 40.82 | 39.73 | 29 | 44 | 5.71 | 3.57 | 66 | 54 | 0.00 | 0.00 | 56 | 49 |  |  |  |  |  |  | excellent inhibitory effects | inhibitory activity on the hatching of eggs of Spodoptera litura (in words) [2]: good inhibitory activities; Hatching rate (%), Replicate 1 ([2]; listed as 19′-(S, S)): 17.54%; Hatching rate (%), Replicate 2 ([2]; listed as 19′-(S, S)): 19.70%; Hatching rate (%), Replicate 3 ([2]; listed as 19′-(S, S)): 18.87%; Number of unhatched larvae 4 days after insecticide delivery, Replicate 1 ([2]; listed as 19′-(S, S)): 47; Number of unhatched larvae 4 days after insecticide delivery, Replicate 2 ([2]; listed as 19′-(S, S)): 53; Number of unhatched larvae 4 days after insecticide delivery, Replicate 3 ([2]; listed as 19′-(S, S)): 43
4 | CC(COS(=O)OCCF)Oc1ccc(Cl)cc1Cl (centres unmarked) [Compound 1] | 72.22 | 67.92 | 20 | 17 | 32.58 | 38.30 | 42 | 29 | 0.00 | 1.64 | 53 | 60 | 41.38 | 39.68 | 40.42 | 34 | 38 | 37 | excellent inhibitory effects | 
5 | CC(COc1ccc(Cl)cc1Cl)OS(=O)OCCF (centres unmarked) [Compound 1′] | 69.81 | 70.83 | 16 | 21 | 36.24 | 31.11 | 42 | 31 | 0.00 | 1.69 | 47 | 58 | 40.68 | 40.32 | 39.06 | 35 | 37 | 39 | excellent inhibitory effects | 
6 | CC(C)(COc1ccc(Cl)cc1Cl)OS(=O)OCCF (centres unmarked) [Compound 10] |  |  |  |  |  |  |  |  |  |  |  |  | 41.27 | 40.98 | 42.11 | 37 | 36 | 33 | excellent inhibitory effects | 
7 | CC(C)(COS(=O)OCCF)Oc1ccc(Cl)cc1Cl (centres unmarked) [Compound 10′] |  |  |  |  |  |  | 47 |  |  |  |  |  | 40.63 | 41.94 | 42.37 | 38 | 36 | 34 | excellent inhibitory effects | 
8 | CCC(COc1ccc(Cl)cc1Cl)OS(=O)OCCF (centres unmarked) [Compound 19] | 72.22 | 69.74 | 15 | 23 | 34.69 | 30.49 | 32 | 57 | 0.00 | 0.00 | 71 | 65 | 29.41 | 30.16 | 29.82 | 36 | 44 | 40 | excellent inhibitory effects | 
